Reference: article PMC9238401, “Peptide Conjugates Derived from flg15, Pep13, and PIP1 That Are Active against Plant-Pathogenic Bacteria and Trigger Plant Defense Responses” (Applied and Environmental Microbiology, 2022)
Entries after “also recorded” stand apart in the source; their conditions may differ. Non-standard residues stand in square brackets, D forms with d. Residues, ends and D or L forms follow the SMILES beside them. *: point of attachment. Butyryl = CCCC(=O)*

Legend:
[1] = tested on: Xanthomonas axonopodis pv. vesicatoria 2133-2; details: TSB, 25°C, 48 h, OD 600 nm (Bioscreen C), three replicates, experiment repeated twice; MIC given as range
How it was run: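 Bacteria grown 24 h (48 h for Xanthomonas axonopodis, X. fragariae) at 25°C, suspended at 10^8 CFU mL^−1, mixed with peptide dilutions in TSB.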

[2] = tested on: X. axonopodis pv. vesicatoria strain 206 on tomato plants (cv. Rio grande); assay: Bacterial spot of tomato, whole-plant infection assay; assay type: in vivo; details: peptide sprayed at 125 μM 24 h before inoculation with 10^8 CFU/mL, severity 13 days after inoculation, two independent experiments, three replicates of three plants, Tukey's test P < 0.05
Description: The effect of the peptide conjugates flg15-BP387, flg15-BP475, and PIP1-BP475 and the monomers flg15 and PIP1 to reduce bacterial spot infection, caused by X. axonopodis pv. vesicatoria, was tested in potted tomato plant assays (Fig. 4).
FIG 4 Effect of the peptides on the bacterial spot of tomato plant severity. Two independent experiments were performed. Disease severity was evaluated in tomato plants 13 days after pathogen inoculation. A nontreated control (NTC) and a treatment with copper oxychloride were included as references. Values correspond to the mean disease severity of three replicates of three plants per each treatment, and error bars represent the confidence interval (α = 0.05). […] The photographs show the symptoms observed in nontreated (A) and flg15-BP475-treated (B) plants.
The efficacy of peptides in bacterial spot of tomato suppression was determined using whole-plant infection assays with tomato plants (cv. Rio grande) inoculated with X. axonopodis pv. vesicatoria strain 206. Tomato plants (4 weeks old) were sprayed with a hand sprayer (Herkules; Nuair, Robassomero, Italy) with 6 mL of an aqueous suspension of flg15-BP387, flg15-BP475, PIP1-BP475, flg15, and PIP1 at 125 μM. An NTC was included by spraying plants with water. A treatment with 70% copper oxychloride at 2 g/L (Cuprocol; Syngenta, Spain) was also included as a positive control. After 24 h, treated plants were spray-inoculated until the runoff point (6 mL) with a suspension of X. axonopodis pv. vesicatoria at 10^8 CFU/mL mixed with diatomaceous earth at 1 mg/mL. Plants were incubated under controlled greenhouse conditions (25 ± 2°C, 16 h light; 15 ± 2°C, 8 h dark; 60% relative humidity). The experimental design consisted of three replicates of three plants per treatment. Two independent experiments were performed. Severity of infections was determined per each replicate after 13 days of pathogen inoculation ([71]). A severity index, ranging from 0 to 4 (0, no symptoms; 1, necrosis/lesions up to 25% of the leaf surface; 2, necrosis/lesions on 25 to 50% of the leaf surface; 3, severe necrosis/lesions on 50 to 75% of the leaf surface; and 4, severe necrosis/lesions on >75% of the leaf surface), was determined for each of the leaves (with 4 to 5 leaflets) of a plant, and it was used to calculate the disease severity index per plant according to the formula
where S is the severity of the infections per plant, Si is the severity index for each leaf, and n is the number of leaves measured, which is multiplied by the maximum severity index (i.e., 4). Then, the mean of the severity index of the three plants of each replicate was calculated. The effect of peptide treatments on plant material infection was determined using analysis of variance (ANOVA). […]

[3] = HPLC retention time as indicator of relative hydrophobicity; assay type: physicochemical; details: chromatographic, Kromasil 100 C18 (4.6 mm × 40 mm, 3 μm), linear gradient 2 to 100% B over 12 min, 1 mL/min; A 0.1% aqueous TFA, B 0.1% TFA in CH3CN; used as indicator of relative hydrophobicity
How it was run: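 Reversed-phase HPLC on Kromasil 100 C18 (4.6 × 40 mm, 3 μm), 0.1% TFA in water/acetonitrile, linear 2–100% B at 1 mL/min over 7 min (method A, UV 220 nm) or 12 min (method B). Retention time serves as relative hydrophobicity.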

Compound | MIC, Xav [1] [µM] | Effect on severity of bacterial spot of tomato [2] | tR (min), HPLC retention time (method B) [3] [min]
CCCC(=O)NCCCC[C@H](NC(=O)[C@H](CCCCN)NC(=O)[C@H](CC(C)C)NC(=O)[C@@H](NC(=O)[C@H](CCCCN)NC(=O)[C@H](CCCCN)NC(=O)[C@@H](Cc1ccccc1)NC(=O)[C@H](CC(C)C)NC(=O)[C@H](CCCCN)NC(=O)[C@H](CCCCN)NC(=O)[C@H](Cc1c[nH]cn1)NC(=O)[C@@H](NC(=O)[C@H](Cc1c[nH]cn1)NC(=O)[C@@H](NC(=O)CNC(=O)[C@H](Cc1ccc(O)cc1)NC(C)=O)[C@@H](C)CC)[C@@H](C)O)[C@@H](C)CC)C(=O)N[C@@H](CC(C)C)C(N)=O [PIP1-BP475] (Ac-YGIHTHKKL[dF]KKILKK(Butyryl)L-NH2) | < 0.8 | showed the same efficacy in reducing the disease as their respective monomers flg15 and PIP1, except for PIP1-BP475 in one of the experiments | 5.55
CCCC(=O)NCCCC[C@H](NC(=O)[C@H](CCCCN)NC(=O)[C@H](CC(C)C)NC(=O)[C@@H](NC(=O)[C@H](CCCCN)NC(=O)[C@H](CCCCN)NC(=O)[C@@H](Cc1ccccc1)NC(=O)[C@H](CC(C)C)NC(=O)[C@H](CCCCN)NC(=O)[C@H](CCCCN)NC(=O)[C@H](C)NC(=O)[C@@H](NC(=O)[C@H](CCC(N)=O)NC(=O)[C@H](CC(C)C)NC(=O)CNC(=O)[C@H](C)NC(=O)[C@H](C)NC(=O)[C@H](CC(=O)O)NC(=O)[C@H](CC(=O)O)NC(=O)[C@H](CCCCN)NC(=O)[C@H](C)NC(=O)[C@H](CO)NC(=O)[C@H](CC(N)=O)NC(=O)[C@@H](NC(=O)[C@H](CCCNC(=N)N)NC(C)=O)[C@@H](C)CC)[C@@H](C)CC)[C@@H](C)CC)C(=O)N[C@@H](CC(C)C)C(N)=O [flg15-BP475] (Ac-RINSAKDDAAGLQIAKKL[dF]KKILKK(Butyryl)L-NH2) | < 0.8 | decreased the severity of the disease compared to treatment with flg15, this reduction being significant in one of the experiments; also recorded: showed the same or more efficacy in reducing disease infection than treatment with copper oxychloride | 6.79
RINSAKDDAAGLQIA-OH [flg15, plant defense elicitor peptide, 15 amino acids of the N-terminal conserved domain of bacterial flagellin; monomer] | > 100 | significantly reduced the severity of bacterial spot of tomato compared to the nontreated control in both experiments | –
YGIHTH-NH2 [PIP1, plant defense elicitor peptide identified through combinatorial chemistry; monomer] | > 50 | only reduced the severity of the disease in one of the experiments | –
